# Assay results as given in patent US20080269343A1, “GALENIC FORMULATIONS OF ORGANIC COMPOUNDS” (priority 2004, published 2008).
# Tests used:
# Type in all cases: in vivo, human
# [1] = Single-dose 300 mg pharmacokinetic study in healthy and type 2 diabetic subjects (Example 4); conditions: single oral dose 300 mg; for AUC(0-t): read-out: AUC0-96
# Experimental: An open label, non-randomized, single center, and parallel group single dose study in healthy and type 2 diabetic subjects was carried out. Two parallel groups, one group of 30 healthy, and one group of 30 type 2 diabetic patients, (age, weight and race matched) were enrolled, and all subjects completed the study in each group. Each subject participated in a 21-day screening period, a baseline period (Day −1), one day treatment period (Day 1) and a study completion evaluation 96 hours after the treatment.
# Once eligibility had been confirmed each subject received a single oral dose of 300 mg of aliskiren (dosage form 3) on Day 1 with 96 hour sampling of pharmacokinetic (PK) parameters. Subjects were admitted to the study site at least 12 hours prior to the dosing and were confined to the clinic for at least 48 hours post-dose and were advised to come back for the rest of the PK samples collection. Subjects were to undergo a study completion evaluation on 96 hours post-dose prior to discharge from the study site.
# Type 2 diabetic patients had been diagnosed with type 2 diabetes at least 1 year prior to screening, and were otherwise in good health. Healthy subjects were selected to match type 2 diabetes patients with regard to age (±5 yr) and weight (±10 kg).
# Blood samples were collected to determine the pharmacokinetics following a single oral dose of 300 mg of aliskiren. Plasma concentrations of aliskiren were used to determine the pharmacokinetic parameters using non-compartmental methods, and the data are summarized in FIG. 4, and Tables 2 and 3.
# [2] = Single and multiple dose 300 mg pharmacokinetic study in Japanese and Caucasian healthy male subjects (Example 5); conditions: for Cavg^SS / AUC(0-t) / Cmax / AUC: arithmetic mean (SD); for Tmax / AUC(0-t) / Cmax / AUC: male, human, plasma, oral, 300 mg; for Tmax: Median (minimum-maximum); for AUC(0-t): read-out: AUC0-72; for AUC: read-out: AUC0-τ
# Experimental: An open label, non-randomized, single center, parallel group single and multiple dose study in healthy male subjects was carried out. Two parallel groups, one Japanese (n=19), the other Caucasian (n=19), age (±5 years) and weight matched (±25%), were enrolled in this study. Each subject participated in a 21-day screening period, a baseline period (Day −1), a 10 day treatment period (Days 1-10) and a study completion evaluation 4-7 days after the last PK sample. Each subject received a single 300 mg oral dose of aliskiren (dosage form 3) on Day 1 with 72 hour PK sampling, followed by multiple (once a day for 7 days) 300 mg oral doses of aliskiren on Days 4 through to 10. All administrations of aliskiren were given following a 10 hour fast. Subjects were domiciled in the study center from Day −1 (baseline) until the 24 hour post last-dose evaluations were completed oh Day 11.
# Blood samples were collected to determine the pharmacokinetics following a single oral dose of 300 mg of aliskiren and multiple doses (once daily) of aliskiren 300 mg. Plasma concentrations of aliskiren were used to determine the pharmacokinetic parameters using non-compartmental methods, and the data are summarized in FIGS. 5 and 6, and Tables 4 and 5.
# [3] = Steady-state pharmacokinetics of aliskiren 300 mg alone, hydrochlorothiazide interaction study, Day 15 (Example 7); conditions: 300 mg daily, Day 15, healthy volunteers N 22; for AUC / Cmax / Tmax: both sexes, human, in vivo, oral, 300 mg
# Experimental: The study employed was an open-label, two-period, multiple dose design to evaluate the pharmacokinetic drug-drug interaction between hydrochlorothiazide (HCTZ) and aliskiren when given alone or in combination to healthy volunteers. After screening, a total of 22 healthy male and female volunteers were enrolled into the study. The subjects were admitted to the study center at least 12 hours prior to the initial dosing of HCTZ for baseline evaluation. If subjects met all eligibility criteria at baseline, they were randomized into the study and confined to the clinic until study completion. All study medications were taken under fasted conditions. The subjects remained in bed for at least 4 hours after dosing on PK sampling days. The study was completed with the end of study evaluations on Day 20, after the last blood sample was collected.
# In period 1 (study Days 1-4), subjects received a single 25 mg daily dose of HCTZ. Period 1 was followed by a 4 day washout period, study Days 5-8. In period 2 (study Days 9-19), subjects received 300 mg of aliskiren once a day for a total of 11 days (Days 9-19), with a single 25 mg dose of HCTZ co-administered for 4 days (Days 16-19).
# Pharmacokinetic blood sampling for aliskiren alone occurred on study Day 15 up to 24 hours post-dose (5-mL blood samples were collected into lithium heparin tubes on Day 15 of the study at pre-dose, 0.5, 1, 2, 3, 4, 6, 8, 12, 16 and 24 hours after dosing).
# [4] = Max, type 2 diabetic patients n = 30
# [5] = Min, type 2 diabetic patients n = 30
# [6] = human, plasma, po, 300 mg, Geometric Mean, healthy subjects n = 30
# [7] = human, plasma, po, 300 mg, Geometric Mean, type 2 diabetic patients n = 30
# [8] = human, plasma, po, 300 mg, Median, healthy subjects n = 30
# [9] = human, plasma, po, 300 mg, Median, type 2 diabetic patients n = 30
# [10] = human, plasma, po, 300 mg, arithmetic mean, healthy subjects n = 30
# [11] = human, plasma, po, 300 mg, arithmetic mean, type 2 diabetic patients n = 30
# [12] = steady state, 300 mg once a day, Caucasian subjects
# [13] = steady state, 300 mg once a day, Japanese subjects
structure (smiles),measurement,setting,value
"COCCCOc1cc(C[C@@H](C[C@H](N)[C@@H](O)C[C@H](C(=O)NCC(C)(C)C(N)=O)C(C)C)C(C)C)ccc1OC [aliskiren, 2(S),4(S),5(S),7(S)—N-(3-amino-2,2-dimethyl-3-oxopropyl)-2,7-di(1-methylethyl)-4-hydroxy-5-amino-8-[4-methoxy-3-(3-methoxy-propoxy)phenyl]-octanamide]",AUC0-96,"[1]; Max, healthy subjects n = 30",4546 ng·h/mL
same,AUC0-∞,"[1]; Max, healthy subjects n = 30",5015 ng·h/mL
same,Cmax,"[1]; Max, healthy subjects n = 30",979 ng/mL
same,Tmax,"[1]; Max, healthy subjects n = 30",6.00 h
same,AUC0-96,[1]; [4],5662 ng·h/mL
same,AUC0-∞,[1]; [4],6171 ng·h/mL
same,Cmax,[1]; [4],1580 ng/mL
same,AUC0-96,"[1]; Min, healthy subjects n = 30",425 ng·h/mL
same,AUC0-∞,"[1]; Min, healthy subjects n = 30",482 ng·h/mL
same,Cmax,"[1]; Min, healthy subjects n = 30",66 ng/mL
same,Tmax,"[1]; Min, healthy subjects n = 30",0.25 h
same,AUC0-96,[1]; [5],431 ng·h/mL
same,AUC0-∞,[1]; [5],465 ng·h/mL
same,Cmax,[1]; [5],80 ng/mL
same,Tmax,[1]; [5],0.25 h
same,AUC(0-inf),[1]; [6],1500 ng·h/mL
same,AUC(0-t),[1]; [6],1380 ng·h/mL
same,Cmax,"[1]; human, plasma, po, 300 mg, Geometric Mean, healthy subjects n = 30, read-out: Cmax",283 ng/mL
same,Tmax,"[1]; human, plasma, po, 300 mg, Geometric Mean, healthy subjects n = 30, read-out: tmax",1.32 h
same,AUC(0-inf),[1]; [7],1740 ng·h/mL
same,AUC(0-t),[1]; [7],1590 ng·h/mL
same,Cmax,"[1]; human, plasma, po, 300 mg, Geometric Mean, type 2 diabetic patients n = 30, read-out: Cmax",322 ng/mL
same,Tmax,"[1]; human, plasma, po, 300 mg, Geometric Mean, type 2 diabetic patients n = 30, read-out: tmax",1.22 h
same,AUC(0-inf),[1]; [8],1340 ng·h/mL
same,AUC(0-t),[1]; [8],1260 ng·h/mL
same,Cmax,"[1]; human, plasma, po, 300 mg, Median, healthy subjects n = 30, read-out: Cmax",278 ng/mL
same,Tmax,"[1]; human, plasma, po, 300 mg, Median, healthy subjects n = 30, read-out: tmax",1.25 h
same,AUC(0-inf),[1]; [9],1900 ng·h/mL
same,AUC(0-t),[1]; [9],1610 ng·h/mL
same,Cmax,"[1]; human, plasma, po, 300 mg, Median, type 2 diabetic patients n = 30, read-out: Cmax",328 ng/mL
same,Tmax,"[1]; human, plasma, po, 300 mg, Median, type 2 diabetic patients n = 30, read-out: tmax",1 h
same,AUC(0-inf),[1]; [10],1780 ng·h/mL
same,AUC(0-t),[1]; [10],1640 ng·h/mL
same,Cmax,"[1]; human, plasma, po, 300 mg, arithmetic mean, healthy subjects n = 30, read-out: Cmax",348 ng/mL
same,Tmax,"[1]; human, plasma, po, 300 mg, arithmetic mean, healthy subjects n = 30, read-out: tmax",1.97 h
same,AUC(0-inf),[1]; [11],2040 ng·h/mL
same,AUC(0-t),[1]; [11],1860 ng·h/mL
same,Cmax,"[1]; human, plasma, po, 300 mg, arithmetic mean, type 2 diabetic patients n = 30, read-out: Cmax",394 ng/mL
same,Tmax,"[1]; human, plasma, po, 300 mg, arithmetic mean, type 2 diabetic patients n = 30, read-out: tmax",1.62 h
same,Cavg^SS,[2]; [12],89 (33) ng/mL
same,Cavg^SS,[2]; [13],105 (49) ng/mL
same,Tmax,"[2]; single dose 300 mg, Caucasian subjects n=19, fasted, read-out: Tmax",2 h
same,Tmax,"[2]; single dose 300 mg, Japanese subjects n=19, fasted, read-out: Tmax",2 h
same,Tmax,"[2]; steady state, 300 mg once a day, Caucasian subjects, read-out: Tmax^SS",2 h
same,Tmax,"[2]; steady state, 300 mg once a day, Japanese subjects, read-out: Tmax^SS",4 h
same,AUC(0-t),"[2]; single dose 300 mg, Caucasian subjects n=19",1120 ng·h/mL
same,Cmax,"[2]; single dose 300 mg, Caucasian subjects n=19, read-out: Cmax",186 ng/mL
same,AUC(0-t),"[2]; single dose 300 mg, Japanese subjects n=19",1390 ng·h/mL
same,Cmax,"[2]; single dose 300 mg, Japanese subjects n=19, read-out: Cmax",215 ng/mL
same,AUC,[2]; [12],2140 ng·h/mL
same,Cmax,"[2]; steady state, 300 mg once a day, Caucasian subjects, read-out: Cmax^SS",321 ng/mL
same,AUC,[2]; [13],2520 ng·h/mL
same,Cmax,"[2]; steady state, 300 mg once a day, Japanese subjects, read-out: Cmax^SS",403 ng/mL
same,Cmin^SS,[3]; Geometric Mean,32.5 ng/mL
same,AUCτ,[3]; Max,3801 ng·h/mL
same,Cmax^SS,[3]; Max,872.0 ng/mL
same,Cmin^SS,[3]; Max,56.5 ng/mL
same,tmax^SS,[3]; Max,6.00 h
same,Cmin^SS,[3]; Median,35.4 ng/mL
same,AUCτ,[3]; Min,512 ng·h/mL
same,Cmax^SS,[3]; Min,27.3 ng/mL
same,Cmin^SS,[3]; Min,13.4 ng/mL
same,tmax^SS,[3]; Min,0.50 h
same,Cmin^SS,[3]; arithmetic mean,35.0 ng/mL
same,AUC,[3]; Geometric Mean,2070 ng·h/mL
same,Cmax,[3]; Geometric Mean,354 ng/mL
same,Tmax,[3]; Geometric Mean,1.84 h
same,AUC,[3]; Median,2320 ng·h/mL
same,Cmax,[3]; Median,406 ng/mL
same,Tmax,[3]; Median,2.24 h
same,AUC,[3]; arithmetic mean,2310 ng·h/mL
same,Cmax,[3]; arithmetic mean,425 ng/mL
same,Tmax,[3]; arithmetic mean,2.23 h
